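Cultured in 96-well plates, cells were exposed to test compound for 48 hours across five concentrations. Here, GI50 denotes the concentration required for 50% inhibition of growth.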 Calls of active or inactive are those of the source. Rule as the data show it: active = GI50 up to about 1.1 µM and inactive = higher.
Legend:
Assay in all cases: DTP human tumour cell line panel, 48 h
[1] = test system: SK-MEL-2
[2] = test system: OVCAR-5
[3] = test system: LOX IMVI
[4] = test system: UACC-62
[5] = test system: HCC 2998
[6] = test system: M14
[7] = test system: SK-MEL-5
[8] = test system: HCT-15
[9] = test system: SF-295
[10] = test system: HOP-92
[11] = test system: TK-10
[12] = test system: OVCAR-3
[13] = test system: COLO 205
[14] = test system: NCI-H460
[15] = test system: HT-29
[16] = test system: SK-MEL-28
[17] = test system: SW-620
[18] = test system: HCT-116
[19] = test system: OVCAR-4
[20] = test system: RPMI-8226

Row | Compound | GI50 [1] | GI50 [2] | GI50 [3] | GI50 [4] | GI50 [5] | GI50 [6] | GI50 [7] | GI50 [8] [µM] | GI50 [9] | GI50 [10] | GI50 [11] | GI50 [12] | GI50 [13] | GI50 [14] | GI50 [15] | GI50 [16] | GI50 [17] | GI50 [18] | GI50 [19] | GI50 [20]
1 | COC[C@@H](Cc1ccc(OC)c(OC)c1)[C@@H](COC)Cc1ccc(OC)c(OC)c1 | > 100 µM (inactive) | > 100 µM (inactive) | > 100 µM (inactive) | > 100 µM (inactive) | > 100 µM (inactive) | > 100 µM (inactive) | 51.9 µM (inactive) | > 100 | > 100 µM (inactive) | 57.9 µM (inactive) | > 100 µM (inactive) | > 100 µM (inactive) | > 100 µM (inactive) | > 100 µM (inactive) | > 100 µM (inactive) | > 100 µM (inactive) | > 100 µM (inactive) | 94 µM (inactive) | – | –
2 | Cc1cc2oc3c(ccc(=O)n3C)c(=O)c2c(C)c1Cl | 40.6 µM (inactive) | 72.9 µM (inactive) | 49.9 µM (inactive) | 40.1 µM (inactive) | > 100 µM (inactive) | 28.5 µM (inactive) | 29 µM (inactive) | 77.6 | 54.8 µM (inactive) | 50.1 µM (inactive) | > 100 µM (inactive) | 42.3 µM (inactive) | 73.5 µM (inactive) | 61 µM (inactive) | 38.3 µM (inactive) | 26.5 µM (inactive) | 82.6 µM (inactive) | 34.9 µM (inactive) | > 100 µM (inactive) | –
3 | CCOC(=O)/C(=C/c1cn(C(C)=O)c2ccccc12)P(=O)(OC)OC | 31.1 µM (inactive) | 40.6 µM (inactive) | 25.3 µM (inactive) | – | > 10 µM (inactive) | 52.4 µM (inactive) | 23.1 µM (inactive) | 29.7 | 44.4 µM (inactive) | 31.1 µM (inactive) | > 100 µM (inactive) | 20.3 µM (inactive) | > 10 µM (inactive) | 24.4 µM (inactive) | 40.5 µM (inactive) | 37.2 µM (inactive) | 41.8 µM (inactive) | 30.8 µM (inactive) | 33.4 µM (inactive) | 19.9 µM (inactive)
4 | CCc1c(-c2ccccc2)[nH]c2ccccc2c1=O | 71.1 µM (inactive) | > 100 µM (inactive) | 48.1 µM (inactive) | 28.8 µM (inactive) | 80.9 µM (inactive) | 35.6 µM (inactive) | 27.4 µM (inactive) | 28.2 | – | – | 44.8 µM (inactive) | 54.1 µM (inactive) | – | 5.16 µM (inactive) | 57.7 µM (inactive) | 67.9 µM (inactive) | – | 41.3 µM (inactive) | 33.2 µM (inactive) | 23.4 µM (inactive)
5 | Cc1ccc(S(=O)(=O)N2CCCSCC2)cc1 | – | – | > 100 µM (inactive) | – | > 100 µM (inactive) | – | > 100 µM (inactive) | > 100 | > 100 µM (inactive) | > 100 µM (inactive) | > 100 µM (inactive) | – | > 100 µM (inactive) | > 100 µM (inactive) | > 100 µM (inactive) | > 100 µM (inactive) | > 100 µM (inactive) | > 100 µM (inactive) | > 100 µM (inactive) | –
6 | C=COCCCOc1ccccc1 | > 100 µM (inactive) | > 100 µM (inactive) | > 100 µM (inactive) | – | > 100 µM (inactive) | > 100 µM (inactive) | > 100 µM (inactive) | > 100 | – | – | > 100 µM (inactive) | > 100 µM (inactive) | > 100 µM (inactive) | > 100 µM (inactive) | > 100 µM (inactive) | > 100 µM (inactive) | > 100 µM (inactive) | > 100 µM (inactive) | > 100 µM (inactive) | > 100 µM (inactive)
7 | CCP(=O)(CC)C(Cl)(Cl)C(O)C(C)(C)C (stereo unspecified) | > 100 µM (inactive) | > 100 µM (inactive) | > 100 µM (inactive) | – | > 100 µM (inactive) | > 100 µM (inactive) | > 100 µM (inactive) | > 100 | > 100 µM (inactive) | > 100 µM (inactive) | > 100 µM (inactive) | > 100 µM (inactive) | > 100 µM (inactive) | > 100 µM (inactive) | > 100 µM (inactive) | > 100 µM (inactive) | > 100 µM (inactive) | > 100 µM (inactive) | > 100 µM (inactive) | > 100 µM (inactive)
8 | CC(C)(Br)C1(O)CCCN1C(=O)c1ccccc1 (stereo unspecified) | > 100 µM (inactive) | > 100 µM (inactive) | > 100 µM (inactive) | > 100 µM (inactive) | > 100 µM (inactive) | > 100 µM (inactive) | > 100 µM (inactive) | > 100 | 25.1 µM (inactive) | > 100 µM (inactive) | > 100 µM (inactive) | > 100 µM (inactive) | > 100 µM (inactive) | > 100 µM (inactive) | > 100 µM (inactive) | > 100 µM (inactive) | > 100 µM (inactive) | > 100 µM (inactive) | – | –
9 | O=C(O)/C(=C\c1ccncc1)c1cccc2ccccc12 | > 100 µM (inactive) | > 100 µM (inactive) | > 100 µM (inactive) | – | – | > 100 µM (inactive) | > 100 µM (inactive) | > 100 | > 100 µM (inactive) | > 100 µM (inactive) | > 100 µM (inactive) | > 100 µM (inactive) | > 100 µM (inactive) | > 100 µM (inactive) | > 100 µM (inactive) | > 100 µM (inactive) | > 100 µM (inactive) | > 100 µM (inactive) | > 100 µM (inactive) | > 100 µM (inactive)
10 | OCc1cn(C(c2ccccc2)(c2ccccc2)c2ccccc2)cn1 | > 100 µM (inactive) | > 100 µM (inactive) | 66.7 µM (inactive) | – | > 100 µM (inactive) | > 100 µM (inactive) | > 100 µM (inactive) | > 100 | 32.3 µM (inactive) | 29.7 µM (inactive) | > 100 µM (inactive) | > 100 µM (inactive) | > 100 µM (inactive) | > 100 µM (inactive) | > 100 µM (inactive) | > 100 µM (inactive) | > 100 µM (inactive) | > 100 µM (inactive) | > 100 µM (inactive) | > 100 µM (inactive)
11 | CC(=O)/N=C1/N(/C=C2\C(=O)Oc3ccccc3C2=O)C(=O)/C(=C/c2ccc(NC(C)=O)cc2)N1C | > 100 µM (inactive) | > 100 µM (inactive) | > 100 µM (inactive) | > 100 µM (inactive) | > 100 µM (inactive) | > 100 µM (inactive) | > 100 µM (inactive) | > 100 | > 100 µM (inactive) | – | – | 76 µM (inactive) | > 100 µM (inactive) | > 100 µM (inactive) | > 100 µM (inactive) | > 100 µM (inactive) | > 100 µM (inactive) | > 100 µM (inactive) | > 100 µM (inactive) | > 100 µM (inactive)
12 | CCCCCCCCCCCC1=NCCN1 | – | – | 3.75 µM (inactive) | – | 19.5 µM (inactive) | > 100 µM (inactive) | 38.6 µM (inactive) | 15.1 | 87.7 µM (inactive) | 94 µM (inactive) | > 100 µM (inactive) | 95.3 µM (inactive) | 19.4 µM (inactive) | 30.1 µM (inactive) | > 100 µM (inactive) | > 100 µM (inactive) | 34.7 µM (inactive) | 56.6 µM (inactive) | 14.8 µM (inactive) | –
